Assay in all cases: NCI tumour cell line growth inhibition, 48 h
Experiment [1] deals with MALME-3M melanoma.
The test system of experiment [2] is A549 NSCLC.
Experiment [3] has as its system EKVX NSCLC.
The subject of experiment [4] is U251 CNS.
Experiment [5] has as its system NCI-H522 lung.
Experiment [6] concerns SW-620 colon.
Experiment [7] relates to HCT-116 colon.
Experiment [8] relates to NCI/ADR-RES ovarian.
The test system of experiment [9] is IGROV1 ovarian.
For experiment [10], the system named is SNB-19 CNS.
For experiment [11], the system named is UACC-62 melanoma.
For experiment [12], the system named is MDA-MB-435.
In experiment [13] the test system is MDA-N.
The subject of experiment [14] is HS 578T breast.

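The compound was tested at five concentrations on cells cultured in 96-well plates, with a 48-hour exposure period. Definition used: TGI = concentration required for complete inhibition of growth.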 Some results are limits rather than exact numbers.

Consider `CCOC(=O)CCc1ccc(NC(=O)/C=C/c2ccc([N+](=O)[O-])o2)cc1`, for which the TGI was 3.14 µM in experiment [1]; 15.1 µM in [2]; more than 100 µM in [3]; 6.42 µM in [4]; 0.548 µM in experiment [5]; 2.31 µM in [6]. The TGI in [7] was 2.01 µM; in experiment [8], 5.37 µM; in experiment [9] it was more than 31.1 µM; in experiment [10] it was more than 71.6 µM; in [11], more than 20.5 µM; in experiment [12] it was 0.845 µM. Also, the figures for the TGI in experiment [13] and in experiment [14] were 2.95 µM and more than 100 µM, respectively.
Turning to `CCOC(=O)c1ccc(N(CCOS(=O)(=O)c2ccc(C)cc2)CCOS(=O)(=O)c2ccc(C)cc2)cc1`, the TGI is more than 100 µM in experiment [1]; more than 100 µM in [2]; more than 100 µM in experiment [3]; 46.6 µM in experiment [4]; more than 100 µM in [5]; more than 100 µM in experiment [6]. Besides, the TGI in experiment [7], in experiment [8], in experiment [9], in [10], in experiment [11] and in [12] was more than 100 µM in each case. Moreover, the TGI in experiment [13] and in [14] was more than 100 µM each time.
Regarding `O=C1NC(N2CCCCC2)=N/C1=C\c1ccco1`, the TGI in experiment [1], in [2], in experiment [3], in [4], in experiment [5] and in [6] was more than 100 µM each time. The TGI in experiment [7], in [8], in experiment [9], in experiment [10], in experiment [11] and in experiment [12] was more than 100 µM in each case. Moreover, the TGI in [13] and in experiment [14] was more than 100 µM throughout.
With `C1=Cc2cccc3occ(c23)C=C1`, the TGI in experiment [1], in [2], in [3], in [4], in experiment [5] and in experiment [6] was more than 100 µM in each case. Moreover, the TGI in [7], in experiment [8], in [9], in experiment [10], in experiment [11] and in experiment [12] was more than 100 µM in each case. In addition, the TGI in [13] and in experiment [14] was more than 100 µM in each case.
As to `COC(=O)/C(C#N)=C/c1cc(C(C)(C)C)c(O)c(C(C)(C)C)c1`, the TGI is 20.4 µM in experiment [1]; more than 100 µM in [2]; 11.9 µM in experiment [3]; 11.5 µM in experiment [4]; 5.52 µM in experiment [5]; 14.5 µM in experiment [6]. Moreover, the TGI in [7] is 10.5 µM; in [8] it was 9.65 µM; in experiment [9] it was more than 100 µM; in experiment [10] it was more than 100 µM; in [11] it was 15.1 µM; in experiment [12], 18.4 µM. In addition, the TGI is 13.3 µM in [13] and more than 37 µM in experiment [14].
Take `CC1N=C(c2ccccc2)OC1=O` (configuration not stated): the TGI in [1], in experiment [2], in [3], in experiment [4], in [5] and in experiment [6] was more than 100 µM throughout. In addition, the TGI in experiment [7], in [8], in experiment [9], in experiment [10], in experiment [11] and in experiment [12] was more than 100 µM each time. The TGI in experiment [13] and in experiment [14] was more than 100 µM each time.
`COc1cc(OC)nc(-n2c(N)c(C(=O)O)c3ccc([N+](=O)[O-])cc3c2=O)n1`: the TGI in experiment [1], in experiment [2], in experiment [3], in [4], in experiment [5] and in experiment [6] was more than 100 µM throughout. Also, the TGI in experiment [7], in experiment [8], in experiment [9], in experiment [10], in experiment [11] and in experiment [12] was more than 100 µM throughout. Further, the TGI in experiment [13] and in experiment [14] was more than 100 µM throughout.
In the case of `COc1ccc(C2=NN(C(=O)c3ccc(Cl)cc3)C(O)(c3cc(F)c(Cl)cc3Cl)C2)cc1` (configuration not stated), the TGI in [1], in [2], in experiment [3], in experiment [4], in [5] and in experiment [7] was more than 100 µM each time. The TGI in experiment [8], in experiment [9], in [10], in experiment [11], in experiment [12] and in experiment [13] was more than 100 µM each time. This molecule also showed a TGI in experiment [14] of more than 100 µM.
As for `CC[C@]1(Cc2ccc(OC)c(OC)c2)C=[N+]([O-])O[C@H](OCc2ccccc2)[C@@H]1OC(C)=O`, the TGI in [1] is 52.9 µM; in experiment [2], more than 100 µM; in [3], 67.5 µM; in experiment [4], more than 100 µM; in experiment [5], 28.5 µM; in [6], more than 100 µM. Also, the TGI in experiment [8], in [9], in experiment [10], in [11], in experiment [12] and in [13] was more than 100 µM throughout. Besides, in experiment [14], the TGI amounted to 60.5 µM.
Take `O=C(NC(CCCCN1C(=O)c2ccccc2C1=O)P(=O)(Oc1ccccc1)Oc1ccccc1)OCc1ccccc1` (configuration not stated): the TGI in [1], in experiment [2], in experiment [3], in experiment [4], in [5] and in [6] was more than 100 µM throughout. For the same molecule, the TGI in experiment [8], in [9], in experiment [10], in experiment [11], in [12] and in experiment [13] was more than 100 µM each time. The same molecule yielded a TGI in experiment [14] of more than 100 µM.

(Values after PubChem BioAssay (NCI).)
